Assays:
[1] = tested on: recRSV-A2-L19FD489E-fireSMASh; format: cell-based, respiratory syncytial virus; settings: for antiviral (anti-RSV) activity in words: SAR discussion
RSV = settings: orally available; phase II clinical trials; cited from earlier work
[2] = Metabolic stability in mouse liver S9 fractions; format: in vitro ADME
[3] = Metabolic stability in mouse liver microsomes; format: in vitro ADME; settings: without cofactors, 2 hours

Molecule | antiviral (anti-RSV) activity in words [1] | other results
5-(4-Methylisoxazole-5-carbonyl)-N-phenyl-5,6,7,8-tetrahydro-4H-pyrazolo[1,5-a][1,4]diazepine-2-carboxamide [Compound 1q] | complete loss of potency | 
5-(4-Methyloxazole-5-carbonyl)-N-phenyl-5,6,7,8-tetrahydro-4H-pyrazolo[1,5-a][1,4]diazepine-2-carboxamide [Compound 1r] | complete loss of potency | 
CC(C)C(=O)OC[C@@]1(CCl)O[C@@H](n2ccc(N)nc2=O)[C@H](F)[C@@H]1OC(=O)C(C)C [ALS-8176, 4'-chloromethyl-2'-deoxy-3',5'-di-o-isobutyryl-2'-fluorocytidine] |  | effect on viral load and disease symptoms (RSV): decreased viral load and disease symptoms
Cc1ccsc1C(=O)N1CCCn2nc(C(=O)Nc3ccccc3)cc2C1 [Compound 1c, 5-(3-Methylthiophene-2-carbonyl)-N-phenyl-5,6,7,8-tetrahydro-4H-pyrazolo[1,5-a][1,4]diazepine-2-carboxamide] | complete loss of potency | 
Cc1cc[nH]c1C(=O)N1CCCn2nc(C(=O)Nc3ccccc3)cc2C1 [Compound 1d, 5-(3-Methyl-1H-pyrrole-2-carbonyl)-N-phenyl-5,6,7,8-tetrahydro-4H-pyrazolo[1,5-a][1,4]diazepine-2-carboxamide] | complete loss of potency | 
Cc1ccn(C)c1C(=O)N1CCCn2nc(C(=O)Nc3ccccc3)cc2C1 [Compound 1e, 5-(1,3-Dimethyl-1H-pyrrole-2-carbonyl)-N-phenyl-5,6,7,8-tetrahydro-4H-pyrazolo[1,5-a][1,4]diazepine-2-carboxamide] | complete loss of potency | 
O=C(Nc1ccccc1)c1cc2n(n1)CCCN(C(=O)c1occc1-c1ccccc1)C2 [Compound 1h, N-phenyl-5-(3-phenylfuran-2-carbonyl)-5,6,7,8-tetrahydro-4H-pyrazolo[1,5-a][1,4]diazepine-2-carboxamide] | lacked appreciable inhibitory activity | 
Cc1c(C(=O)N2CCCn3nc(C(=O)Nc4ccccc4)cc3C2)oc2ccccc12 [Compound 1i, 5-(3-Methylbenzofuran-2-carbonyl)-N-phenyl-5,6,7,8-tetrahydro-4H-pyrazolo[1,5-a][1,4]diazepine-2-carboxamide] | complete loss of potency | 
O=C(Nc1ccccc1)c1cc2n(n1)CCCN(C(=O)c1occc1C(F)(F)F)C2 [Compound 1j, N-phenyl-5-(3-(trifluoromethyl)furan-2-carbonyl)-5,6,7,8-tetrahydro-4H-pyrazolo[1,5-a][1,4]diazepine-2-carboxamide] | negative impacts on the potency | 
CCc1ccoc1C(=O)N1CCCn2nc(C(=O)Nc3ccccc3)cc2C1 [Compound 1k, 5-(3-Ethylfuran-2-carbonyl)-N-phenyl-5,6,7,8-tetrahydro-4H-pyrazolo[1,5-a][1,4]diazepine-2-carboxamide] | negative impacts on the potency | 
Cc1cc(C(=O)N2CCCn3nc(C(=O)Nc4ccccc4)cc3C2)oc1C [Compound 1n, 5-(4,5-Dimethylfuran-2-carbonyl)-N-phenyl-5,6,7,8-tetrahydro-4H-pyrazolo[1,5-a][1,4]diazepine-2-carboxamide] | lacked antiviral activity | 
Cc1coc(C(=O)N2CCCn3nc(C(=O)Nc4ccccc4)cc3C2)c1 [Compound 1o, 5-(4-Methylfuran-2-carbonyl)-N-phenyl-5,6,7,8-tetrahydro-4H-pyrazolo[1,5-a][1,4]diazepine-2-carboxamide] | loss of activity | 
Cc1ccc(C(=O)N2CCCn3nc(C(=O)Nc4ccccc4)cc3C2)o1 [Compound 1p, 5-(5-Methylfuran-2-carbonyl)-N-phenyl-5,6,7,8-tetrahydro-4H-pyrazolo[1,5-a][1,4]diazepine-2-carboxamide] | loss of activity | 
O=C(Nc1ccccc1)c1cc2n(n1)CCCN(C(=O)c1ccncn1)C2 [Compound 1s, N-phenyl-5-(pyrimidine-4-carbonyl)-5,6,7,8-tetrahydro-4H-pyrazolo[1,5-a][1,4]diazepine-2-carboxamide] | complete loss of potency | 
Cc1ccoc1CN1CCCn2nc(C(=O)Nc3ccccc3)cc2C1 [Compound 1t, 5-((3-Methylfuran-2-yl)methyl)-N-phenyl-5,6,7,8-tetrahydro-4H-pyrazolo[1,5-a][1,4]diazepine-2-carboxamide] | complete loss of bioactivity | 
O=C(Nc1ccccc1)c1cc2n(n1)CCCN(S(=O)(=O)c1ccco1)C2 [Compound 1u, 5-(Furan-2-ylsulfonyl)-N-phenyl-5,6,7,8-tetrahydro-4H-pyrazolo[1,5-a][1,4]diazepine-2-carboxamide] | complete loss of bioactivity | 
Cc1ccoc1C(=O)N1CCCn2nc(C(=O)N(C)c3ccccc3)cc2C1 [Compound 8a, N-methyl-5-(3-methylfuran-2-carbonyl)-N-phenyl-5,6,7,8-tetrahydro-4H-pyrazolo[1,5-a][1,4]diazepine-2-carboxamide] | loss of activity | 
Cc1ccoc1C(=O)N1CCCn2nc(C(=O)Nc3ccc(F)cc3F)cc2C1 [Compound 8c, N-(2,4-difluorophenyl)-5-(3-methylfuran-2-carbonyl)-5,6,7,8-tetrahydro-4H-pyrazolo[1,5-a][1,4]diazepine-2-carboxamide] |  | improvement in antiviral potency compared to hit compound 1a [1]: approximately 4 fold
Cc1ccoc1C(=O)N1CCCn2nc(C(=O)Nc3ccccc3F)cc2C1 [Compound 8g, N-(2-fluorophenyl)-5-(3-methylfuran-2-carbonyl)-5,6,7,8-tetrahydro-4H-pyrazolo[1,5-a][1,4]diazepine-2-carboxamide] |  | improvement in antiviral potency compared to hit compound 1a [1]: approximately 4 fold; stability with mouse S9 fractions ([2]; in the absence of cofactors): hydrolyzed rapidly
Cc1ccoc1C(=O)N1CCCn2nc(C(=O)Nc3ccc(F)cc3)cc2C1 [Compound 8i, N-(4-fluorophenyl)-5-(3-methylfuran-2-carbonyl)-5,6,7,8-tetrahydro-4H-pyrazolo[1,5-a][1,4]diazepine-2-carboxamide] | nanomolar potency | 
COc1ccc(NC(=O)c2cc3n(n2)CCCN(C(=O)c2occc2C)C3)cc1 [Compound 8l, N-(4-methoxyphenyl)-5-(3-methylfuran-2-carbonyl)-5,6,7,8-tetrahydro-4H-pyrazolo[1,5-a][1,4]diazepine-2-carboxamide] | nanomolar potency | 
Cc1ccoc1C(=O)N1CCCn2nc(C(=O)Nc3ccc(F)cc3Cl)cc2C1 [Compound 8n, N-(2-chloro-4-fluorophenyl)-5-(3-methylfuran-2-carbonyl)-5,6,7,8-tetrahydro-4H-pyrazolo[1,5-a][1,4]diazepine-2-carboxamide] | nanomolar potency | improvement in antiviral potency compared to hit compound 1a [1]: approximately 4 fold
Cc1ccoc1C(=O)N1CCCn2nc(C(=O)Cc3ccccc3)cc2C1 [Compound 8p, 1-(5-(3-Methylfuran-2-carbonyl)-5,6,7,8-tetrahydro-4H-pyrazolo[1,5-a][1,4]diazepin-2-yl)-2-phenylethanone] | retained sufficient activity | improvement in half-life compared to 8g ([2]; mouse S9 subcellular fractions): 2 fold; stability of parent in mouse liver microsomes [3]: parent remained intact
Cc1ccoc1C(=O)N1CCCn2nc(CNc3ccccc3)cc2C1 [Compound 8q, (3-Methylfuran-2-yl)(2-((phenylamino)methyl)-7,8-dihydro-4H-pyrazolo[1,5-a][1,4]diazepin-5(6H)-yl)methanone] | retained sufficient activity | 
Cc1ccoc1C(=O)N1CCCn2nc(S(=O)(=O)Nc3ccccc3)cc2C1 [Compound 8r, 5-(3-Methylfuran-2-carbonyl)-N-phenyl-5,6,7,8-tetrahydro-4H-pyrazolo[1,5-a][1,4]diazepine-2-sulfonamide] | loss of activity | 
Cc1ccoc1C(=O)N1CCCn2nc(NC(=O)c3ccccc3)cc2C1 [Compound 8s, N-(5-(3-methylfuran-2-carbonyl)-5,6,7,8-tetrahydro-4H-pyrazolo[1,5-a][1,4]diazepin-2-yl)benzamide] | loss of activity | 
Cc1ccoc1C(=O)N1CCCn2nc(NS(=O)(=O)c3ccccc3)cc2C1 [Compound 8t, N-(5-(3-methylfuran-2-carbonyl)-5,6,7,8-tetrahydro-4H-pyrazolo[1,5-a][1,4]diazepin-2-yl)benzenesulfonamide] | loss of activity | 
